Measurements: ChEMBL document CHEMBL1136598, “Design, synthesis, and structure-activity relationships of unsubstituted piperazinone-based transition state factor Xa inhibitors” (Bioorg Med Chem Lett, 2003)
Calls of active or inactive are those of the source. No cut-off for these calls is given here.

What was measured:
Coagulation factor X [1] = target: T1, Coagulation factor X (Homo sapiens, UniProt P00742); experiment: In vitro inhibitory activity against factor Xa
Prothrombin = Prothrombin (Homo sapiens, UniProt P00734); experiment: In vitro inhibitory activity against serine protease thrombin
[2] = In vitro anticoagulant activity was measured by plasma based on thrombin generation (TG) assay; type: functional
Coagulation factor X [3] = target: T1, Coagulation factor X; experiment: (§1) In vitro binding affinity towards factor Xa
[4] = In vivo half life period after intravenous administration in rat; type: ADME, organism-based
[5] = In vitro anticoagulant activity was measured by activated partial thromboplastin time (APTT) assay; type: functional
Serine protease 1 = Serine protease 1 (Homo sapiens, UniProt P07477); experiment: Inhibitory activity against Trypsin
[6] = In vitro anticoagulant activity was measured by prothrombin time (PT) assay; type: functional
Oryctolagus cuniculus [7] = experiment: In vivo plasma concentration required to inhibit thrombosis formation in rabbit; type: functional, organism-based
Oryctolagus cuniculus [8] = experiment: In vivo inhibition thrombosis formation in rabbit; type: functional
[9] = target: Vitamin K-dependent protein C (Homo sapiens, UniProt P04070); experiment: Inhibitory activity against activated protein C (aPC)
Plasminogen = Plasminogen (Homo sapiens, UniProt P00747); experiment: Inhibitory activity against Plasmin
[10] = Inhibitory activity against Kallikrein
Coagulation factor X [11] = target: T1, Coagulation factor X; experiment: as §1; remark: listed apart in the source
[12] = target: Tissue-type plasminogen activator (Homo sapiens, UniProt P00750); experiment: Inhibitory activity against tissue plasminogen activator (tissue plasminogen activator)
Oryctolagus cuniculus [13] = species: Oryctolagus cuniculus; experiment: Inhibition thrombosis formation in rabbit; type: functional
Oryctolagus cuniculus [14] = species: Oryctolagus cuniculus; experiment: Plasma concentration required to inhibit thrombosis formation in rabbit; type: functional, organism-based
Coagulation factor X [15] = target: T1, Coagulation factor X; experiment: In vitro binding affinity towards factor Xa; Not active
[16] = Half life period after intravenous administration in rat; type: ADME, organism-based; conditions: in vivo
[17] = In vitro anticoagulant activity was measured by plasma based thrombin generation (TG) assay; type: functional
Oryctolagus cuniculus [18] = experiment: In vivo inhibition of thrombosis formation in rabbit; type: functional

T1 sequence (P00742 41-179 limits assumed): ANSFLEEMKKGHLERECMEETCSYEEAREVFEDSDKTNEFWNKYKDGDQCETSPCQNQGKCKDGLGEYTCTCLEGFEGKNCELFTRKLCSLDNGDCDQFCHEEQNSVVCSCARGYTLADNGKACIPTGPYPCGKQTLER
T1 sequence (P00742 235-488 limits assumed): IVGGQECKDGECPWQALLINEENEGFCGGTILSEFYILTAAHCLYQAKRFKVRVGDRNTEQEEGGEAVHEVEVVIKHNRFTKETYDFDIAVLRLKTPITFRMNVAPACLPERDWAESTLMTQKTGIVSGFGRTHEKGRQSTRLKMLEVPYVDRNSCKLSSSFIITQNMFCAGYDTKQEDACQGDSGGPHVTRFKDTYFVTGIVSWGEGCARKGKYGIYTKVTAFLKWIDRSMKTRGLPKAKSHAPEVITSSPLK
Chain of Tissue-type plasminogen activator (P00750 whole entry): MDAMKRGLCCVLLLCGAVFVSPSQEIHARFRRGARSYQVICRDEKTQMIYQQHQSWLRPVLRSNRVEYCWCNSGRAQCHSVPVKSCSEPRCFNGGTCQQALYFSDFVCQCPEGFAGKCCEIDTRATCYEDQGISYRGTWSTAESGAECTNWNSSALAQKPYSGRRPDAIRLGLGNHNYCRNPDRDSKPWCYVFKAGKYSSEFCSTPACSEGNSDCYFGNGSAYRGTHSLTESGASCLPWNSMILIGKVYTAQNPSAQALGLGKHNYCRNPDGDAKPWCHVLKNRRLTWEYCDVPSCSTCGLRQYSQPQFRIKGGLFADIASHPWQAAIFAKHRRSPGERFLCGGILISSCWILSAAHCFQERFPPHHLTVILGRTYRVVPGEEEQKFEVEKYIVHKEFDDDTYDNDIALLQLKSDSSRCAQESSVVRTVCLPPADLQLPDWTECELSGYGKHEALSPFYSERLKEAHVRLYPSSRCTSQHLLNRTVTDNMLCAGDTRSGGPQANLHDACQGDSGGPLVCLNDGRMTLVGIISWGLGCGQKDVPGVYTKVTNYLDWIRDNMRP
Chain of Vitamin K-dependent protein C (P04070 43-197 limits assumed): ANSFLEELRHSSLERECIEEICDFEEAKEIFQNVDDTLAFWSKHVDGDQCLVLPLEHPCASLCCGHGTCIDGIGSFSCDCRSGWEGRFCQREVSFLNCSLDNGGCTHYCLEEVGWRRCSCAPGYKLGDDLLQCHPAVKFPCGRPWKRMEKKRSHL
Chain of Vitamin K-dependent protein C (P04070 212-461 limits assumed): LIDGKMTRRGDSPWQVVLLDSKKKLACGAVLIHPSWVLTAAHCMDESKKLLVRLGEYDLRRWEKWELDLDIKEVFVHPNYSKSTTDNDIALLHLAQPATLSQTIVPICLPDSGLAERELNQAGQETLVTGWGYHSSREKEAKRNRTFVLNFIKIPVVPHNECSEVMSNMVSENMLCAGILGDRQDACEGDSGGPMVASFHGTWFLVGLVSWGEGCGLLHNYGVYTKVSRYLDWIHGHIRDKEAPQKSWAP
Chain of Plasminogen (P00747 97-580 limits assumed): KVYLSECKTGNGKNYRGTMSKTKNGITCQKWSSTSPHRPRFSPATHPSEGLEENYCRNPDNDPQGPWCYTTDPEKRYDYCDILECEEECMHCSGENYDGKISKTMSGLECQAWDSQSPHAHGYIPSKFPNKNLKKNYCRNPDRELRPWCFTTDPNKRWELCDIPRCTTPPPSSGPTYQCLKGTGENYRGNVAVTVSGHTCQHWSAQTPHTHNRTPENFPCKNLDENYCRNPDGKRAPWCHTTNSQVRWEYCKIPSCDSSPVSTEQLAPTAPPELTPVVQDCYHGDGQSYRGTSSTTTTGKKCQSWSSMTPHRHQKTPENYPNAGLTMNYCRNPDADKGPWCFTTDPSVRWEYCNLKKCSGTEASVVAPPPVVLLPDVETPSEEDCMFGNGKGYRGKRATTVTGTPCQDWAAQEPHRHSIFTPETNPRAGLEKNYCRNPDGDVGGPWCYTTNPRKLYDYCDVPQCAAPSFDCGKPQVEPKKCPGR
Chain of Plasminogen (P00747 581-810 limits assumed): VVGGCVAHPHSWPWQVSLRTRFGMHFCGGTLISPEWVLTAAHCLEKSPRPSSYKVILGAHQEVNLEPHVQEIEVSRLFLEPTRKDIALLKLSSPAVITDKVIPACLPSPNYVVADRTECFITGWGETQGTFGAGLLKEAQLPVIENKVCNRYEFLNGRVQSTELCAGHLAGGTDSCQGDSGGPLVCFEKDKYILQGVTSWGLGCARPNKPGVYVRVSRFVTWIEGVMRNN
Chain of Serine protease 1 (P07477 whole entry): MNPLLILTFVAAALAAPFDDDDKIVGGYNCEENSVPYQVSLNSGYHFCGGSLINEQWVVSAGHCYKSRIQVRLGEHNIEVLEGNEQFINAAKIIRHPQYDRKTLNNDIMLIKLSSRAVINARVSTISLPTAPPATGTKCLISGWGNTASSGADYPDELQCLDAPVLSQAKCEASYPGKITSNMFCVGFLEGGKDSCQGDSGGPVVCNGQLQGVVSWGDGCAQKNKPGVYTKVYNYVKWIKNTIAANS

Compound `N=C(N)NCCC[C@@H](NC(=O)CN1CCN(S(=O)(=O)c2ccccc2)CC1=O)C(=O)c1nccs1` has an IC50 (Coagulation factor X [1]) of 8 nM and an IC50 (Prothrombin) of 417 nM.

For `N=C(N)NCCCC(NC(=O)CN1CCN(S(=O)(=O)c2ccc3ccccc3c2)CC1=O)C(=O)c1nccs1` (stereo unspecified), the “2x TG” value [2] was “inactive”, the Ki (Coagulation factor X [3]) was 2.7 nM and the half-life [4] was 15 min. It also gave a 2x APTT [5] of 13.5 µM, an IC50 (Serine protease 1) of 39.1 nM and a 2x PT [6] of 14.5 µM. It also gave an IC50 (Coagulation factor X [1]) of 8 nM, a Plasma concentration (Oryctolagus cuniculus [7]) of 0.8 µM and an Inhibition (Oryctolagus cuniculus [8]) of 0%. For the same compound, the IC50 [9] was greater than 180000 nM, the IC50 (Plasminogen) was 6960 nM and the IC50 (Prothrombin) was 6000 nM. The IC50 [10] was 390 nM, the k off (Coagulation factor X [11]) was 0.132 s⁻¹ and the k on (Coagulation factor X [11]) was 6.3e+06 M⁻¹ s⁻¹. For the same compound, the IC50 [12] was 1850 nM.

In the case of `Cc1c(S(=O)(=O)N2CCN(CC(=O)NC(CCCN=C(N)N)C(=O)c3nccs3)C(=O)C2)sc2ccc(Cl)cc12` (stereo unspecified), the “2x TG” value [2] is reported as 5.46 µM, the 2x APTT [5] is reported as 15.5 µM and the 2x PT [6] is reported as 14.5 µM. It also gave an Inhibition (Oryctolagus cuniculus [13]) of 0%, a Plasma concentration (Oryctolagus cuniculus [14]) of 1.6 µM and an IC50 [10] of 9.4 nM. For the same compound, the k_off (Coagulation factor X [15]) was “inactive” and the k_on (Coagulation factor X [15]) was “inactive”.

`CS(=O)(=O)c1ccc(S(=O)(=O)N2CCN(CC(=O)NC(CCCN=C(N)N)C(=O)c3nccs3)C(=O)C2)cc1` (stereo unspecified) gave an IC50 (Coagulation factor X [1]) of 85 nM and an IC50 (Prothrombin) of 4000 nM.

Compound `N=C(N)NCCC[C@@H](NC(=O)CN1CCN(S(=O)(=O)Cc2ccccc2)CC1)C(=O)c1nccs1` has an IC50 (Coagulation factor X [1]) of 24000 nM and an IC50 (Prothrombin) greater than 500000 nM.

Work on `Cc1c(S(=O)(=O)N2CCN(CC(=O)NC(CCCNC(=N)N)C(=O)c3nccs3)C(=O)C2)sc2ccc(Cl)cc12` (stereo unspecified) yielded a Ki (Coagulation factor X [3]) of 0.17 nM, an IC50 (Serine protease 1) of 20 nM and an IC50 (Coagulation factor X [1]) of 0.51 nM. It also gave an IC50 [9] of 169000 nM, an IC50 (Plasminogen) of 1300 nM and an IC50 (Prothrombin) of 751 nM. For the same compound, the half-life [16] was 5 min and the IC50 [12] was 9960 nM.

In the case of `N=C(N)NCCC[C@@H](NS(=O)(=O)Cc1ccccc1)C(=O)NCC(=O)N[C@H](CCCNC(=N)N)C(=O)c1nccs1`, the “2x TG” value [2] is reported as 0.18 µM, the half-life [4] is reported as 24 min and the 2x APTT [5] is reported as 0.5 µM. For the same compound, the IC50 (Serine protease 1) was 0.8 nM, the 2x PT [6] was 6.8 µM and the Plasma concentration (Oryctolagus cuniculus [7]) was 0.07 µM. It also gave an Inhibition (Oryctolagus cuniculus [8]) of 100%, an IC50 [9] of 6000 nM and an IC50 (Plasminogen) of 309 nM. The IC50 (Prothrombin) was 10000 nM, the IC50 [10] was 27 nM and the k on (Coagulation factor X [11]) was 6.5e+06 M⁻¹ s⁻¹. It also gave an IC50 [12] of 329 nM.

In the case of `N=C(N)NCCCC(NC(=O)CN1CCN(S(=O)(=O)c2ccc(-c3ccccn3)s2)CC1=O)C(=O)c1nccs1` (stereo unspecified), the IC50 (Coagulation factor X [1]) is reported as 4 nM and the IC50 (Prothrombin) is reported as 4000 nM.

In the case of `N=C(N)NCCCC(NC(=O)CN1CCN(S(=O)(=O)c2ccc(C(F)(F)F)cc2)CC1=O)C(=O)c1nccs1` (stereo unspecified), the IC50 (Coagulation factor X [1]) is reported as 10 nM and the IC50 (Prothrombin) is reported as 6000 nM.

`N=C(N)NCCC[C@@H](NC(=O)CN1CCCC(CCC2CCNCC2)C1=O)C(=O)c1nccs1` (stereo partly specified) gave an IC50 (Coagulation factor X [1]) of 65 nM and an IC50 (Prothrombin) of 12000 nM.

With `N=C(N)NCCCC(NC(=O)CN1CCN(S(=O)(=O)c2cccc3cccnc23)CC1=O)C(=O)c1nccs1` (stereo unspecified) the “2x TG” value [2] was 2.5 µM, the Ki (Coagulation factor X [3]) was 4.4 nM and the half-life [4] was 29 min. The 2x APTT [5] was 2 µM, the IC50 (Serine protease 1) was 2 nM and the 2x PT [6] was 10.4 µM. The IC50 (Coagulation factor X [1]) was 2 nM, the Plasma concentration (Oryctolagus cuniculus [7]) was 0.4 µM and the Inhibition (Oryctolagus cuniculus [8]) was 0%. It also gave an IC50 [9] greater than 180000 nM, an IC50 (Plasminogen) of 10 nM and an IC50 (Prothrombin) of 569 nM. The IC50 [10] was 240 nM, the k off (Coagulation factor X [11]) was 0.107 s⁻¹ and the k on (Coagulation factor X [11]) was 2.9e+06 M⁻¹ s⁻¹. It also gave an IC50 [12] of 150 nM.

For `N=C(N)NCCCC(NC(=O)CN1CCN(S(=O)(=O)CCc2cccc3ccccc23)CC1=O)C(=O)c1nccs1` (stereo unspecified), the IC50 (Coagulation factor X [1]) was 3 nM and the IC50 (Prothrombin) was 375 nM.

With `N=C(N)NCCCC(NC(=O)CN1CCN(S(=O)(=O)c2cccc(Cl)c2)CC1=O)C(=O)c1nccs1` (stereo unspecified) the IC50 (Coagulation factor X [1]) was 5 nM and the IC50 (Prothrombin) was 134 nM.

With `N=C(N)NCCCC(NC(=O)CN1CCN(S(=O)(=O)c2cccc3ccccc23)CC1=O)C(=O)c1nccs1` (stereo unspecified) the IC50 (Coagulation factor X [1]) was 2 nM and the IC50 (Prothrombin) was 118 nM.

Compound `COc1ccc(S(=O)(=O)N2CCN(CC(=O)NC(CCCNC(=N)N)C(=O)c3nccs3)C(=O)C2)cc1` (stereo unspecified) has an IC50 (Coagulation factor X [1]) of 0.89 nM and an IC50 (Prothrombin) of 792 nM.

Work on `N=C(N)NCCCC(NC(=O)CN1CCN(S(=O)(=O)c2ccc(Cl)c(Cl)c2)CC1=O)C(=O)c1nccs1` (stereo unspecified) yielded an IC50 (Coagulation factor X [1]) of 1 nM and an IC50 (Prothrombin) of 1000 nM.

`N=C(N)NCCCC(NC(=O)CN1CCN(S(=O)(=O)c2ccc(C(=O)O)cc2)CC1=O)C(=O)c1nccs1` (stereo unspecified) gave an IC50 (Coagulation factor X [1]) of 510 nM and an IC50 (Prothrombin) of 17000 nM.

For `N=C(N)NCCC[C@@H](NC(=O)CN1CCN(S(=O)(=O)Cc2ccccc2)CC1=O)C(=O)c1nccs1`, the Ki (Coagulation factor X [3]) was 1.4 nM, the half-life [4] was 10 min and the 2x APTT [5] was 2.8 µM. The IC50 (Serine protease 1) was 33 nM, the 2x PT [6] was 11.7 µM and the IC50 (Coagulation factor X [1]) was 4 nM. It also gave a Plasma concentration (Oryctolagus cuniculus [7]) of 0.4 µM, an IC50 [9] greater than 180000 nM and an IC50 (Plasminogen) of 12100 nM. The IC50 (Prothrombin) was 390 nM, the IC50 [10] was 677 nM and the “2x TG” value [17] was “inactive”. The Inhibition (Oryctolagus cuniculus [18]) was 35%, the k off (Coagulation factor X [11]) was 0.013 s⁻¹ and the k on (Coagulation factor X [11]) was 2.3e+06 M⁻¹ s⁻¹. The IC50 [12] was 4010 nM.

`N=C(N)NCCC[C@@H](NC(=O)CN1CCN(C(=O)Cc2ccccc2)CC1=O)C(=O)c1nccs1` showed an IC50 (Coagulation factor X [1]) of 21 nM and an IC50 (Prothrombin) of 2000 nM.

For `N=C(N)NCCC[C@@H](NC(=O)CNC(=O)[C@H](Cc1c[nH]c2ccccc12)NS(=O)(=O)Cc1ccccc1)C(=O)c1nccs1`, the IC50 (Coagulation factor X [1]) was 2 nM and the IC50 (Prothrombin) was 870 nM.

For `N=C(N)NCCC[C@@H](NC(=O)CN1CCN(Cc2ccccc2)CC1=O)C(=O)c1nccs1`, the IC50 (Coagulation factor X [1]) was 771 nM and the IC50 (Prothrombin) was 14000 nM.

With `N=C(N)NCCCC(NC(=O)CN1CCN(S(=O)(=O)c2ccc([N+](=O)[O-])cc2)CC1=O)C(=O)c1nccs1` (stereo unspecified) the IC50 (Coagulation factor X [1]) was 6 nM and the IC50 (Prothrombin) was 3000 nM.

Compound `N=C(N)NCCCC(NC(=O)CN1CCN(S(=O)(=O)c2cccc3cnccc23)CC1=O)C(=O)c1nccs1` (stereo unspecified) has an IC50 (Coagulation factor X [1]) of 1 nM and an IC50 (Prothrombin) of 267 nM.
